Where “and” joins values, the source holds several entries; their conditions need not be identical. Equal entries are not always repeated. Where two headings read alike, the source gives them in different places.
Assays:
[1] = test system: Aβ; conditions: 2-APB (10 mg/kg, FIG. 7D) before 3% sevoflurane for 6 h; neonatal naïve mice; sevoflurane alone 304%; P=0.042
From the text: (§1) The animal protocol was approved by the Standing Committee on Animals at Massachusetts General Hospital (Boston, Mass.). Naive mice (C57BL/6J mice [The JacksonLaboratory, Bar Harbor, Me.]) and Alzheimer's disease (AD) transgenic mice (B6.Cg-Tg[APPswe, PSEN1dE9]85 Dbo/J, [The Jackson Laboratory]) were distinguished by genotyping. All animals (3-12 mice per experiment) were 6 days old at the time of anesthesia and were randomized by weight and gender into experimental groups that received either 3 or 2.1% sevoflurane plus 60% oxygen for either 6 or 2 h, and control groups received 60% oxygen for 6 or 2 h at identical flow rates in identical anesthetizing chambers. […] Anesthetic and oxygen concentrations were measured continuously (Datex, Tewksbury, Mass.), and the temperature of the anesthetizing chamber was controlled to maintain the rectal temperature of the mice at 37°±0.5° C. In the interaction studies, the inositol trisphosphate receptor (IP3R) antagonist 2-aminoethoxydiphenyl borate (2-APB) (5 and 10 mg/kg) was administered to the mice via intraperitoneal injection 10 min before the anesthetic was administered. 2-APB was first dissolved in dimethyl sulfoxide to 20 μg/μl and then diluted with saline to 0.25 μg/μl (1:80 dilution) and to 0.5 μg/μl (1:40 dilution).
(§2) Data were expressed as mean±SD.

[2] = test system: caspase-3; conditions: for sevoflurane-induced caspase-3 activation, percentage of control (100%): sevoflurane alone 356%; for caspase-3 activation, fold of control (1-fold): 3% sevoflurane for 6 h, FIG. 4B
From the text: as §1
(§3) Immediately after sevoflurane anesthesia, the mouse was decapitated, and the brain cortex was harvested. The brain tissues were homogenized in an immunoprecipitation buffer (10 mM Tris-HCl, pH 7.4, 150 mM NaCl, 2 mM ethylenediaminetetraacetic acid, and 0.5% Nonidet P-40) plus protease inhibitors ([1 μg/ml aprotinin, 1 μg/ml leupeptin, and 1 μg/ml pepstatin A]; [Roche, Indianapolis, Ind.]). The lysates were collected, centrifuged at 13,000 rpm for 15 min, and quantified for total proteins by using the bicinchoninic acid protein assay kit (Pierce, Iselin, N.J.).
(§4) The harvested brain tissues were subjected to Western blots as described by Xie et al. (16). Briefly, 60 μg of each lysate was separated on sodium dodecyl sulfate polyacrylamide gel electrophoresis gels and transferred to polyvinylidene difluoride blots (Bio-Rad, Hercules, Calif.) using a semidry electrotransfer system (Amersham Biosciences, San Francisco, Calif.). The blot was incubated overnight at 4° C. with primary antibodies, followed by washes and incubation with appropriate secondary antibodies, and visualized with a chemoluminescence system. A caspase-3 antibody (1:1,000 dilution; Cell Signaling Technology, Danvers, Mass.) was used to recognize the caspase-3 fragment (17-20 kDa) resulting from cleavage at aspartate position 175 and fulllength (FL) caspase-3 (35-40 kDa). TNF-α levels were recognized by antibody ab6671 (26 kDa; 1:1,000; Abcam, Cambridge, Mass.). The antibody to nontargeted protein β-actin was used to control for loading differences in total protein amounts. The figures showing blots with only the caspase-3 fragment are the same Western blots with extended exposure time during the development of the film. The signal of the Western blot band was detected using Molecular Imager VersaDoc MP 5000 System (Bio-Rad). The intensity of signals was analyzed using a Bio-Rad image program (Quantity One) and a National Institutes of Health Image Version 1.37 (National Institutes of Health, Bethesda, Md.). Western blots were quantified using two steps. First, levels of β-actin was used to normalize (e.g., determining the ratio of FL caspase-3 amount to β-actin amount) the levels of proteins to control for loading differences in total protein amounts.

[3] = test system: Aβ40 and Aβ42 oligomerization
Method: (§5) To this end, H4 human neuroglioma cells stably transfected to express human full-length wild-type APP (H4-APP cells) in cell culture media with […] Aβ40, Aβ42 or Aβ40 plus Aβ42, were treated with an clinically relevant concentration of propofol (e.g., 100 μM) for one hour, and then with 2% isoflurane (plus 21% O2 and 5% CO2) for six hours. Wild-type H4 human neuroglioma cells (H4 naïve cells) and primary neurons from naïve (C57BL/6) mice were also used in the study for comparison. To obtain primary neurons, naïve (C57BL/6) mice with gestation stage of day 15 were euthanized with CO2. The primary neurons were harvested from the embyros. The harvested neurons were cultured for 7 to 10 days prior to treatment.
(§6) Anesthesia machine was used for the delivery of 2% isoflurane to the cells or neurons plated in a six well plate in a sealed plastic box located in a 37° C. incubator and Datex infrared gas analyzer was used for the monitoring (FIGS. 9A to 9C). The cells and the cell culture media were harvested at the end of the treatment. Caspase-3 activation and Aβ oligomerization were measured with quantitative Western blotting. Chemiluminescence signal from the western blot membranes was captured using a VersaDoc Imaging System and images were analyzed using Quantity One software (BioRad Hercules, Calif.).
In addition to the propofol effects on caspase-3 activation, its effects on Aβ oligomerization were assessed. H4-APP cell culture media were exposed to 2% isoflurane with and without 100 μM propofol for six hours. Antibody mAb 6E10 (1:3,000, Sigma) was used to detect Aβ40 and Aβ42 oligomerization.

[4] = test system: H4-APP cells
Method: as §5, §6
(§7) Apoptosis is a programmed cell death requiring cysteine proteases called caspases, and caspase-3 activation is one of the final steps of apoptosis. Thus, a caspase-3 antibody (Cell Signaling, Danvers, Mass.) was used to recognize full-length (35 kDa), and the large fragment of cleaved caspase-3 (17-20 kDa).

[5] = test system: primary neurons from naïve (C57BL/6) mice; conditions: propofol before 2% isoflurane, gestation day 15, FIG. 12
Method: as §5, §6, §7

[6] = test system: H4 naïve cells; conditions: propofol before 2% isoflurane, FIG. 11
Method: as §5, §6, §7

[7] = Mortality of neonatal mice after sevoflurane anesthesia; type: in vivo; conditions: 6-day-old mice
Method: Naive mice (C57BL/6J mice [The JacksonLaboratory, Bar Harbor, Me.]) and Alzheimer's disease (AD) transgenic mice (B6.Cg-Tg[APPswe, PSEN1dE9]85 Dbo/J, [The Jackson Laboratory]) were distinguished by genotyping. All animals (3-12 mice per experiment) were 6 days old at the time of anesthesia and were randomized by weight and gender into experimental groups that received either 3 or 2.1% sevoflurane plus 60% oxygen for either 6 or 2 h, and control groups received 60% oxygen for 6 or 2 h at identical flow rates in identical anesthetizing chambers. […] The high concentration of sevoflurane anesthesia was used to illustrate the difference of sevoflurane-induced neurotoxicity between neonatal naïve and AD transgenic mice. […] Anesthetic and oxygen concentrations were measured continuously (Datex, Tewksbury, Mass.), and the temperature of the anesthetizing chamber was controlled to maintain the rectal temperature of the mice at 37°±0.5° C.

[8] = test system: amyloid precursor protein (APP); conditions: mouse, in vivo
From the text: as §1, §3, §4

[9] = test system: TUNEL-positive cells (apoptosis) in the brain tissues; assay: TUNEL staining of brain sections of neonatal mice; type: in vivo; conditions: 3% sevoflurane plus 60% oxygen for 6 h, FIG. 5B
Method: Terminal Deoxynucleotidyl Transferase dUTP Nick End Labeling Staining Assay. […] The mouse brain tissues were removed and exposed to immersion fixation for 24 h at 4° C. in 4% paraformaldehyde, and then 5-μm paraffin-embedded sections were made from the brain tissues. TMRred kit (Roche, Palo Alto, Calif.) was used for terminal deoxynucleotidyl transferase dUTP nick end labeling (TUNEL) staining. Briefly, the brain sections were incubated in a permeabilization solution and then incubated with a TUNEL reaction mixture. Finally, the sections were incubated with 10 μg/ml Hoechst 33342 in a humidified dark chamber. The sections from the same brain areas between control group mice and the sevoflurane-treated mice were then analyzed in a mounting medium under a fluorescence microscope. The TUNEL-positive cells and total cells in five areas of the brain section from each of the mice in the experiments were counted blind-fold under a 20× objective microscope lens. For the double immunocytochemistry staining to identify the cell type of the TUNEL-positive cells, the mouse brain tissues were quickly removed after sevoflurane anesthesia, put into a container with dry ice and ethanol, and then kept in a −80° C. freezer. Five-micrometer frozen sections were cut using a cryostat. […] Finally, the sections were mounted and immediately viewed using a fluorescence microscope.
as §2

[10] = test system: apoptosis in the developing rat brain; conditions: intraventricular injection, Wei and Xie, 6 Curr. Alzheimer Res. 30 (2009); cited from earlier work

## NCCOB(c1ccccc1)c1ccccc1 [2-APB, 2-aminoethoxydiphenyl borate]
[1]
  sevoflurane-induced increase in Aβ levels, percentage of control: 157%
[2]; 5 mg/kg 2-APB i.p. 10 min before 3% sevoflurane for 6 h, neonatal naïve mice, P=0.001
  sevoflurane-induced caspase-3 activation, percentage of control (100%): 149%
[2]; 10 mg/kg 2-APB i.p. 10 min before 3% sevoflurane for 6 h, neonatal naïve mice, P=0.005
  sevoflurane-induced caspase-3 activation, percentage of control (100%): 115%

## CC(C)c1cccc(C(C)C)c1O [propofol, 2,6-diisopropylphenol]
[3]; 100 μM propofol for one hour prior to 2% isoflurane, H4-APP cells, FIG. 14B
  effect on isoflurane-induced Aβ40 (oligomerization): attenuated
[3]; 100 μM propofol for one hour prior to 2% isoflurane, H4-APP cells, FIG. 14C
  effect on isoflurane-induced Aβ42 (oligomerization): attenuated
[3]; propofol alone, no isoflurane
  Aβ oligomerization by propofol alone: did not induce
[4]; 100 μM propofol for one hour prior to 2% isoflurane for six hours, H4-APP cells, FIG. 10
  effect on isoflurane-induced caspase-3 activation: attenuated isoflurane-induced caspase-3 activation
[4]; propofol alone, no isoflurane
  caspase-3 activation by propofol alone: did not induce
[5]
  effect on isoflurane-induced caspase-3 activation: did not attenuate
[6]
  effect on isoflurane-induced caspase-3 activation: did not attenuate

## FCOC(C(F)(F)F)C(F)(F)F [sevoflurane]
[7]; 2.1% sevoflurane
  death of the mice: did not cause the death of the mice
[7]; 3% sevoflurane plus 60% oxygen for 6 h
  mortality rate of the mice: 10-15%
[2]; 2.1% sevoflurane for 6 h, neonatal AD transgenic mice, FIG. 2D, P=0.045
  caspase-3 activation, percentage of control (100%): 178%
[2]; 2.1% sevoflurane for 6 h, neonatal naïve mice, FIG. 2B, P=0.002
  caspase-3 activation, percentage of control (100%): 183%
[2]; 3% sevoflurane for 2 h, neonatal naïve mice, FIG. 3B, P=0.074 (did not increase)
  caspase-3 activation, percentage of control (100%): 128%
[2]; neonatal AD transgenic mice
  caspase-3 activation, fold of control (1-fold): 2.45 fold and 2.13 fold
[2]; neonatal naïve mice, P=0.003
  caspase-3 activation, fold of control (1-fold): 1.48 fold
[2]; 3% sevoflurane for 6 h alone, neonatal naïve mice, 2-APB interaction study, FIG. 7B, P=0.002
  caspase-3 activation, percentage of control (100%): 356%
[2]; 3% sevoflurane plus 60% oxygen for 6 h, 6-day-old neonatal naïve mice, FIG. 1B, P=0.009
  increase in caspase-3 cleavage (activation), ratio of cleaved caspase-3 fragment to FL-caspase-3, compared with control: 242%
[8]
  decrease in the ratio of APP-C83 to APP-FL compared with control: 45%
  decrease in the ratio of APP-C99 to APP-FL compared with control: 33%
[9]; neonatal AD transgenic mice
  TUNEL-positive cells (apoptosis), fold of control (1-fold): 2.13 fold and 2.45 fold
[9]; neonatal naïve mice, P=0.001
  TUNEL-positive cells (apoptosis), fold of control (1-fold): 2.08 fold

## C1CCC[C@H]2CCCN3CC[C@@H](CCCCCC[C@@H]4CCCN5CC[C@@H](CC1)O[C@@H]45)O[C@@H]23 [xestospongin C]
[10]
  effect on isoflurane-induced apoptosis: inhibits isoflurane-induced apoptosis
